The structures appear in SMILES notation.

Here are results for 25 molecules from ChEMBL document CHEMBL3044655, “QSAR studies of 7-methyljuglone derivatives as antitubercular agents” (Med Chem Res, 2012).

The assay relates to Mycobacterium tuberculosis. Nature of the assay: Antitubercular activity against Mycobacterium tuberculosis H37Rv by BACTEC method. Type of assay: functional, organism-based.

For the molecule `CC(=O)Oc1cc(OC(C)=O)c2c(OC(C)=O)c(C)c(C)c(Cl)c2c1OC(C)=O`, the IC50 runs as follows: (read-out: IC50) 7.7 nM; (read-out: pIC50 (converted)) 7.7 nM.

`COc1c(OC)c(OC(C)=O)c2c(OC(C)=O)cc(OC(C)=O)c(OC(C)=O)c2c1F`: the IC50 (read-out: IC50) is 3.9 nM and the IC50 (read-out: pIC50 (converted)) was 3.86 nM.

Regarding `CC(=O)Oc1cc(OC(C)=O)c2c(OC(C)=O)ccc(F)c2c1OC(C)=O`, the IC50 by setting is: (read-out: IC50) 7.9 nM; (read-out: pIC50 (converted)) 7.97 nM.

For `CC(=O)Oc1cc(OC(C)=O)c2c(OC(C)=O)ccc(Cl)c2c1OC(C)=O`, the IC50 is, setting by setting: (read-out: IC50) 12.4 nM; (read-out: pIC50 (converted)) 12.2 nM.

Consider `CC(=O)Oc1cc(OC(C)=O)c2c(OC(C)=O)c(C)c(C)c(F)c2c1OC(C)=O`, for which the IC50 is, setting by setting: (read-out: IC50) 3.3 nM; (read-out: pIC50 (converted)) 3.34 nM.

Consider `Cc1ccc2c(c1O)C(=O)C=CC2=O`, for which the IC50 reads like this: (read-out: IC50) 3.1 nM; (read-out: pIC50 (converted)) 3.1 nM.

For the molecule `CC(=O)Oc1cc(C)cc2c1C(=O)C=CC2=O`, the IC50 runs as follows: (read-out: IC50) 6 nM; (read-out: pIC50 (converted)) 6 nM.

Turning to `CC(=O)Oc1cc(C)c(Cl)c2c1C(=O)C=CC2=O`, the IC50 was 6.3 nM (read-out: IC50) and 6.3 nM (read-out: pIC50 (converted)).

On to `COc1cc(C)cc2c1C(=O)C=CC2=O`, for which the IC50 is 5.8 nM (read-out: IC50) and 5.8 nM (read-out: pIC50 (converted)).

For the molecule `CC(=O)Oc1cc(OC(C)=O)c2c(OC(C)=O)c(C)cc(Cl)c2c1OC(C)=O`, the IC50 by setting is: (read-out: IC50) 149 nM; (read-out: pIC50 (converted)) 149 nM.

For `COc1cc(C)c(Cl)c2c1C(=O)C=CC2=O`, the IC50 was 7.7 nM (read-out: IC50) and 7.7 nM (read-out: pIC50 (converted)).

For the molecule `CCOc1c(C)cc(Cl)c2c1C(=O)C=CC2=O`, the IC50 (read-out: IC50) came to 12.5 nM and the IC50 (read-out: pIC50 (converted)) is 12.5 nM.

Turning to `CCOc1cc(C)cc2c1C(=O)C=CC2=O`, the IC50 runs as follows: (read-out: IC50) 6.3 nM; (read-out: pIC50 (converted)) 6.3 nM.

With `CCOc1cc(C)c(Cl)c2c1C(=O)C=CC2=O`, the IC50 (read-out: IC50) was determined as 36.1 nM and the IC50 (read-out: pIC50 (converted)) is 36.1 nM.

On to `CC(=O)Oc1cc(OC(C)=O)c2c(OC(C)=O)cc(C)cc2c1OC(C)=O`, for which the IC50 reads like this: (read-out: IC50) 17.2 nM; (read-out: pIC50 (converted)) 17.2 nM.

Regarding `COc1c(C)cc(Cl)c2c1C(=O)C=CC2=O`, the IC50 by setting is: (read-out: IC50) 8 nM; (read-out: pIC50 (converted)) 8 nM.

Take `CC(=O)Oc1cc(OC(C)=O)c2c(OC(C)=O)cc(C)c(Cl)c2c1OC(C)=O`: the IC50 is 27.8 nM (read-out: IC50) and 27.8 nM (read-out: pIC50 (converted)).

For `CC(=O)Oc1c(C)cc(Cl)c2c1C(=O)C=CC2=O`, the IC50 by setting is: (read-out: IC50) 21.1 nM; (read-out: pIC50 (converted)) 21.1 nM.

As for `Cc1cc(O)c2c(c1)C(=O)C(O)=CC2=O`, the IC50 by setting is: (read-out: IC50) 3.1 nM; (read-out: pIC50 (converted)) 3.1 nM.

On to `Cc1cc(O)c2c(c1Br)C(=O)C=CC2=O` [5-BROMO-8-HYDROXY-6-METHYLNAPHTHALENE-1,4-DIONE], for which the IC50 is 3.6 nM (read-out: IC50) and 3.6 nM (read-out: pIC50 (converted)).

Turning to `Cc1cc(O)c2c(c1Cl)C(=O)C=CC2=O` [5-CHLORO-8-HYDROXY-6-METHYLNAPHTHALENE-1,4-DIONE], the IC50 by setting is: (read-out: IC50) 2.5 nM; (read-out: pIC50 (converted)) 2.5 nM.

On to `Cc1cc(O)c2c(c1F)C(=O)C=CC2=O` [5-FLUORO-8-HYDROXY-6-METHYLNAPHTHALENE-1,4-DIONE], for which the IC50 is 7.6 nM (read-out: IC50) and 7.6 nM (read-out: pIC50 (converted)).

Regarding `Cc1cc(Cl)c2c(c1O)C(=O)C=CC2=O` [8-CHLORO-5-HYDROXY-6-METHYLNAPHTHALENE-1,4-DIONE], the IC50 (read-out: IC50) came to 4.6 nM and the IC50 (read-out: pIC50 (converted)) is 4.6 nM.

`O=C1C=CC(=O)c2c(O)cccc21` [JUGLONE]: the IC50 is 1.2 nM (read-out: IC50) and 1.2 nM (read-out: pIC50 (converted)).

For the molecule `Cc1cc(O)c2c(c1)C(=O)C=CC2=O` [RAMENTACEONE], the IC50 by setting is: (read-out: IC50) 15.1 nM; (read-out: pIC50 (converted)) 15.1 nM.
